In patent US20160002204A1 (Board of Regents, The University of Texas System, priority 2014, published 2016):

Key:
[1] = biological target: T1, GLS1 (purified recombinant human GAC) (Homo sapiens, UniProt O94925); assay: GLS1 enzymatic activity assay (dual-coupled, Amplex UltraRed/resorufin); format: biochemical
T1 sequence (O94925 55-598 isoform O94925-3 limits assumed): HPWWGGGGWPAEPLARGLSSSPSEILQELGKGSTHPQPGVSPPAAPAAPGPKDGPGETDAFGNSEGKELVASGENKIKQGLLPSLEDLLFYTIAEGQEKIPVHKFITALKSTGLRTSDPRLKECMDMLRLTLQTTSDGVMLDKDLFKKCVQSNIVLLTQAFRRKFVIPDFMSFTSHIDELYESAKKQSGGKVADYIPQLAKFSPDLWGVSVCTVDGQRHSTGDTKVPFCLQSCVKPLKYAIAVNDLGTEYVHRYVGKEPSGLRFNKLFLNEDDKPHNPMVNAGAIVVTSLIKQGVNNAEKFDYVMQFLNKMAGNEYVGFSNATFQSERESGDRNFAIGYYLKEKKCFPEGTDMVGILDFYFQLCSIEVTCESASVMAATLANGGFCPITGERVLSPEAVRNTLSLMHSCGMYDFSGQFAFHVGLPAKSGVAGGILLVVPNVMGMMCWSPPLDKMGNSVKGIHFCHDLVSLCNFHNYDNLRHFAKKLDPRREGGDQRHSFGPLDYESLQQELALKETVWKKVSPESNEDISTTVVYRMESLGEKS
Summary of the method: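 Recombinant human GAC (2 nM) preincubated with 50 mM potassium phosphate, then inhibitor (10 min each, RT); 1 mM glutamine, pH 7.4 Hepes buffer, 1% DMSO. Glutamate coupled via glutamate oxidase/HRP to resorufin (Ex 530/Em 590), kinetic or 20-min endpoint; IC50 by four-parameter logistic fit.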

A549 cells = assay: A549 proliferation (viability) assay, Cell Titer Fluor, 72 hours; format: cell-based; conditions: Homo sapiens
Summary of the method: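 Seed A549 at 1000 cells/well and culture 24 h. Add compound (final DMSO 0.5%) and incubate 72 h at 37 °C. Add Cell Titer Fluor, mix 15 min, incubate 30 min, read fluorescence and fit EC50 by four-parameter logistic.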

Structure (SMILES) | IC50 [1] [nM] | EC50 (A549 cells) [nM]
O=C(CC1CCC1)Nc1ccn(CCC(F)Cn2cc(C(=O)NCc3ccc(C(F)(F)F)cn3)nn2)c(=O)c1F (centres unmarked) [Example 390, 1-{4-[4-(2-cyclobutylacetamido)-3-fluoro-2-oxo-1,2-dihydropyridin-1-yl]-2-fluorobutyl}-N-{[5-(trifluoromethyl)pyridin-2-yl]methyl}-1H-1,2,3-triazole-4-carboxamide] | 100 to 500 | < 100
NC(=O)c1cn(CC(F)CCn2ccc(NC(=O)CC3CCC3)c(F)c2=O)nn1 (centres unmarked) [Example 391, 1-{4-[4-(2-cyclobutylacetamido)-3-fluoro-2-oxo-1,2-dihydropyridin-1-yl]-2-fluorobutyl}-1H-1,2,3-triazole-4-carboxamide] | 500 to 5000 | > 5000
O=C(Cc1ccccc1)Nc1ccn(CCC(F)Cn2cc(C(=O)NCc3cc(Cl)ccc3F)nn2)c(=O)c1F (centres unmarked) [Example 392, N-[(5-chloro-2-fluorophenyl)methyl]-1-{2-fluoro-4-[3-fluoro-2-oxo-4-(2-phenylacetamido)-1,2-dihydropyridin-1-yl]butyl}-1H-1,2,3-triazole-4-carboxamide] | < 100 | < 100
O=C(CC1CCCC1)Nc1ccn(CCC(F)Cn2cc(C(=O)NCc3ccccn3)nn2)c(=O)c1F (centres unmarked) [Example 393, 1-{4-[4-(2-cyclopentylacetamido)-3-fluoro-2-oxo-1,2-dihydropyridin-1-yl]-2-fluorobutyl}-N-(pyridin-2-ylmethyl)-1H-1,2,3-triazole-4-carboxamide] | < 100 | < 100
O=C(CC1CCCC1)Nc1ccn(CCC(F)Cn2cc(C(=O)NCc3ccc(C(F)(F)F)cn3)nn2)c(=O)c1F (centres unmarked) [Example 394, 1-{4-[4-(2-cyclopentylacetamido)-3-fluoro-2-oxo-1,2-dihydropyridin-1-yl]-2-fluorobutyl}-N-{[5-(trifluoromethyl)pyridin-2-yl]methyl}-1H-1,2,3-triazole-4-carboxamide] | < 100 | < 100
O=C(CC1CCCC1)Nc1ccn(CCC(F)Cn2cc(C(=O)NCc3cc(Cl)ccc3F)nn2)c(=O)c1F (centres unmarked) [Example 395, N-[(5-chloro-2-fluorophenyl)methyl]-1-{4-[4-(2-cyclopentylacetamido)-3-fluoro-2-oxo-1,2-dihydropyridin-1-yl]-2-fluorobutyl}-1H-1,2,3-triazole-4-carboxamide] | < 100 | < 100
Cc1ccc(CNC(=O)c2cn(CC(F)CCn3ccc(NC(=O)OC4CCC4)c(F)c3=O)nn2)cn1 (centres unmarked) [Example 396, cyclobutyl N-{3-fluoro-1-[3-fluoro-4-(4-{[(6-methylpyridin-3-yl)methyl]carbamoyl}-1H-1,2,3-triazol-1-yl)butyl]-2-oxo-1,2-dihydropyridin-4-yl}carbamate] | 100 to 500 | < 100
O=C(Nc1ccn(CCC(F)Cn2cc(C(=O)NCc3cccc(C(F)(F)F)n3)nn2)c(=O)c1F)OC1CCC1 (centres unmarked) [Example 397, cyclobutyl N-(3-fluoro-1-{3-fluoro-4-[4-({[6-(trifluoromethyl)pyridin-2-yl]methyl}carbamoyl)-1H-1,2,3-triazol-1-yl]butyl}-2-oxo-1,2-dihydropyridin-4-yl)carbamate] | 100 to 500 | 100 to 500
O=C(Nc1ccn(CCC(F)Cn2cc(C(=O)NCc3cncc(C(F)(F)F)c3)nn2)c(=O)c1F)OC1CCC1 (centres unmarked) [Example 398, cyclobutyl N-(3-fluoro-1-{3-fluoro-4-[4-({[5-(trifluoromethyl)pyridin-3-yl]methyl}carbamoyl)-1H-1,2,3-triazol-1-yl]butyl}-2-oxo-1,2-dihydropyridin-4-yl)carbamate] | < 100 | < 100
O=C(Nc1ccn(CCC(F)Cn2cc(C(=O)NCc3ccc(C(F)(F)F)nc3)nn2)c(=O)c1F)OC1CCC1 (centres unmarked) [Example 399, cyclobutyl N-(3-fluoro-1-{3-fluoro-4-[4-({[6-(trifluoromethyl)pyridin-3-yl]methyl}carbamoyl)-1H-1,2,3-triazol-1-yl]butyl}-2-oxo-1,2-dihydropyridin-4-yl)carbamate] | 100 to 500 | 100 to 500
O=C(CC1CCCC1)Nc1ccn(CCC(F)Cn2cc(C(=O)NCc3ccc(OC(F)(F)F)cn3)nn2)c(=O)c1F (centres unmarked) [Example 400, 1-{4-[4-(2-cyclopentylacetamido)-3-fluoro-2-oxo-1,2-dihydropyridin-1-yl]-2-fluorobutyl}-N-{[5-(trifluoromethoxy)pyridin-2-yl]methyl}-1H-1,2,3-triazole-4-carboxamide] | < 100 | < 100
O=C(CC1CCC1)Nc1cnn(CCC(F)Cn2cc(C(=O)NCc3cc(C(F)(F)F)ccn3)nn2)c(=O)c1 (centres unmarked) [Example 401, 1-{4-[4-(2-cyclobutylacetamido)-6-oxo-1,6-dihydropyridazin-1-yl]-2-fluorobutyl}-N-{[4-(trifluoromethyl)pyridin-2-yl]methyl}-1H-1,2,3-triazole-4-carboxamide] | < 100 | 100 to 500
Cc1ccc(CNC(=O)c2cn(CC(F)CCn3ncc(NC(=O)CC4CCC4)cc3=O)nn2)cn1 (centres unmarked) [Example 402, 1-{4-[4-(2-cyclobutylacetamido)-6-oxo-1,6-dihydropyridazin-1-yl]-2-fluorobutyl}-N-[(6-methylpyridin-3-yl)methyl]-1H-1,2,3-triazole-4-carboxamide] | 100 to 500 | 500 to 5000
CNC(=O)c1cn(CC(F)CCn2ccc(NC(=O)CN3CCN(C(=O)OC(C)(C)C)CC3)cc2=O)nn1 (centres unmarked) [Example 403, tert-butyl 4-{[(1-{3-fluoro-4-[4-(methylcarbamoyl)-1H-1,2,3-triazol-1-yl]butyl}-2-oxo-1,2-dihydropyridin-4-yl)carbamoyl]methyl}piperazine-1-carboxylate] | 100 to 500 | 500 to 5000

More lines, now with the values ahead:

IC50 [1] [nM] | EC50 (A549 cells) [nM] | Structure (SMILES)
100 to 500 | 500 to 5000 | CC(C)CNC(=O)c1cn(CC(F)CCn2ccc(NC(=O)CN3CCN(C(=O)OC(C)(C)C)CC3)cc2=O)nn1 (centres unmarked) [Example 404, tert-butyl 4-({[1-(3-fluoro-4-{4-[(2-methylpropyl)carbamoyl]-lH-1,2,3-triazol-1-yl}butyl)-2-oxo-1,2-dihydropyridin-4-yl]carbamoyl}methyl)piperazine-1-carboxylate]
100 to 500 | 100 to 500 | CC(C)(C)OC(=O)N1CCN(CC(=O)Nc2ccn(CCC(F)Cn3cc(C(=O)NCC4CCCC4)nn3)c(=O)c2)CC1 (centres unmarked) [Example 405, tert-butyl 4-({[1-(4-{4-[(cyclopentylmethyl)carbamoyl]-1H-1,2,3-triazol-1-yl}-3-fluorobutyl)-2-oxo-1,2-dihydropyridin-4-yl]carbamoyl}methyl)piperazine-1-carboxylate]
500 to 5000 | > 5000 | CC(C)(CO)CNC(=O)c1cn(CC(F)CCn2ccc(NC(=O)CN3CCN(C(=O)OC(C)(C)C)CC3)cc2=O)nn1 (centres unmarked) [Example 406, tert-butyl 4-({[1-(3-fluoro-4-{4-[(3-hydroxy-2,2-dimethylpropyl)carbamoyl]-1H-1,2,3-triazol-1-yl}butyl)-2-oxo-1,2-dihydropyridin-4-yl]carbamoyl}methyl)piperazine-1-carboxylate]
500 to 5000 | > 5000 | CC(C)(C)OC(=O)N1CCN(CC(=O)Nc2ccn(CCC(F)Cn3cc(C(N)=O)nn3)c(=O)c2)CC1 (centres unmarked) [Example 407, tert-butyl 4-[({1-[4-(4-carbamoyl-1H-1,2,3-triazol-1-yl)-3-fluorobutyl]-2-oxo-1,2-dihydropyridin-4-yl}carbamoyl)methyl]piperazine-1-carboxylate]
> 5000 | > 5000 | CC(C)(C)OC(=O)c1cn(CC(F)CCn2ccc(CO)cc2=O)nn1 (centres unmarked) [Example 408, tert-butyl 1-{2-fluoro-4-[4-(hydroxymethyl)-2-oxo-1,2-dihydropyridin-1-yl]butyl}-1H-1,2,3-triazole-4-carboxylate]
< 100 | < 100 | O=C(Cc1ccccc1)Nc1ccn(CCC(F)Cn2cc(C(=O)NCc3ccc(OC(F)(F)F)cn3)nn2)c(=O)c1F (centres unmarked) [Example 409, 1-{2-fluoro-4-[3-fluoro-2-oxo-4-(2-phenylacetamido)-1,2-dihydropyridin-1-yl]butyl}-N-{[5-(trifluoromethoxy)pyridin-2-yl]methyl}-1H-1,2,3-triazole-4-carboxamide]
100 to 500 | 500 to 5000 | O=C(Nc1ccn(CCC(F)Cn2cc(C(=O)NCc3cc(C(F)(F)F)ccn3)nn2)c(=O)n1)OC1CCC1 (centres unmarked) [Example 410, cyclobutyl N-(1-{3-fluoro-4-[4-({[4-(trifluoromethyl)pyridin-2-yl]methyl}carbamoyl)-1H-1,2,3-triazol-1-yl]butyl}-2-oxo-1,2-dihydropyrimidin-4-yl)carbamate]
500 to 5000 | 500 to 5000 | Cc1ccc(CNC(=O)c2cn(CC(F)CCn3ccc(NC(=O)C(=O)N4CCCC4)c(F)c3=O)nn2)cn1 (centres unmarked) [Example 411, 1-(2-fluoro-4-{3-fluoro-2-oxo-4-[2-oxo-2-(pyrrolidin-1-yl)acetamido]-1,2-dihydropyridin-1-yl}butyl)-N-[(6-methylpyridin-3-yl)methyl]-1H-1,2,3-triazole-4-carboxamide]
